Common to all, as to assay: Kinase inhibitor specificity profiling (Reaction Biology Corporation)
What all share (format): biochemical
Design in all cases: % Enzyme Activity (relative to DMSO controls): concentration or dose not given beside the values

Test [1] addresses T1, panel of 370 protein kinases (Homo sapiens, UniProt Q8IU85).
T1 construct: purchased Reaction Biology Corporation (assay service)
As to conditions: 2 h, kinase CAMK1d; read-out: % Enzyme Activity (relative to DMSO controls).

Test [2] addresses T2, panel of 370 protein kinases (Homo sapiens, UniProt P49336).
T2 construct: purchased Reaction Biology Corporation (assay service)
As to conditions: kinase CDK8/cyclin C.

Test [3] has as its target T3, panel of 370 protein kinases (Homo sapiens, UniProt P15735).
T3 construct: purchased Reaction Biology Corporation (assay service)
As to conditions: 2 h, kinase PHKg2; read-out: % Enzyme Activity (relative to DMSO controls).

Test [4] concerns the target T4, panel of 370 protein kinases (Homo sapiens, UniProt Q6PHR2).
T4 construct: purchased Reaction Biology Corporation (assay service)
As to conditions: kinase ULK3.

Test [5] deals with T5, panel of 370 protein kinases (Homo sapiens, UniProt Q56UN5).
T5 construct: purchased Reaction Biology Corporation (assay service)
As to conditions: 2 h, kinase YSK4/MAP3K19; read-out: % Enzyme Activity (relative to DMSO controls).

Test [6] has as its target T6, panel of 370 protein kinases (Homo sapiens, UniProt P45983).
T6 construct: purchased Reaction Biology Corporation (assay service)
As to conditions: kinase JNK1.

Test [7] concerns the target T7, panel of 370 protein kinases (Homo sapiens, UniProt Q9UPZ9).
T7 construct: purchased Reaction Biology Corporation (assay service)
As to conditions: 2 h, kinase LCK2/ICK; read-out: % Enzyme Activity (relative to DMSO controls).

In test [8] the target is T8, panel of 370 protein kinases (Homo sapiens, UniProt Q16566).
T8 construct: purchased Reaction Biology Corporation (assay service)
As to conditions: 2 h, kinase CAMK4; read-out: % Enzyme Activity (relative to DMSO controls).

Test [9] has as its target T9, panel of 370 protein kinases (Homo sapiens, UniProt Q9Y5S2).
T9 construct: purchased Reaction Biology Corporation (assay service)
As to conditions: 2 h, kinase MRCKb/CDC42BPB; read-out: % Enzyme Activity (relative to DMSO controls).

Test [10] deals with T10, panel of 370 protein kinases (Homo sapiens, UniProt P42681).
T10 construct: purchased Reaction Biology Corporation (assay service)
As to conditions: 2 h, kinase TXK; read-out: % Enzyme Activity (relative to DMSO controls).

In test [11] the target is T11, panel of 370 protein kinases (Homo sapiens, UniProt Q02156).
T11 construct: purchased Reaction Biology Corporation (assay service)
As to conditions: 2 h, kinase PKCepsilon; read-out: % Enzyme Activity (relative to DMSO controls).

Test [12] concerns the target T12, panel of 370 protein kinases (Homo sapiens, UniProt O95747).
T12 construct: purchased Reaction Biology Corporation (assay service)
As to conditions: 2 h, kinase OSR1/OXSR1; read-out: % Enzyme Activity (relative to DMSO controls).

Test [13] addresses T13, panel of 370 protein kinases (Homo sapiens, UniProt Q9NRM7).
T13 construct: purchased Reaction Biology Corporation (assay service)
As to conditions: kinase LATS2.

The target in test [14] is T14, panel of 370 protein kinases (Homo sapiens, UniProt P07332).
T14 construct: purchased Reaction Biology Corporation (assay service)
As to conditions: 2 h, kinase FES/FPS; read-out: % Enzyme Activity (relative to DMSO controls).

The target of test [15] is T15, panel of 370 protein kinases (Homo sapiens, UniProt Q13555).
T15 construct: purchased Reaction Biology Corporation (assay service)
T15 sequence (Q13555 whole entry): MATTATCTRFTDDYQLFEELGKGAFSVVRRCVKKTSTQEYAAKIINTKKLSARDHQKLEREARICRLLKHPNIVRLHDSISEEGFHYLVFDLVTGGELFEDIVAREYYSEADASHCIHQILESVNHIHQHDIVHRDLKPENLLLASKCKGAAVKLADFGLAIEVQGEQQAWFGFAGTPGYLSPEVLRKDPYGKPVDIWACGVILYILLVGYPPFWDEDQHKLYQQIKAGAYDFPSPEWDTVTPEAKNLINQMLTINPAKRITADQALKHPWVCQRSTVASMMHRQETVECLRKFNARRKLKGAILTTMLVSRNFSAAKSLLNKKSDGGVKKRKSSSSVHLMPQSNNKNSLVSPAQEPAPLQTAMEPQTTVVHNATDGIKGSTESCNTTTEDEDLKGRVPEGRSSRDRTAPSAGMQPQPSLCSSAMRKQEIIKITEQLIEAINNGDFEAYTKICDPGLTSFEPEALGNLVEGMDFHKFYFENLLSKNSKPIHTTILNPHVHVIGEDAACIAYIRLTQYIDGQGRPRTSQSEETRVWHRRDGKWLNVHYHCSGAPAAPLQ
As to conditions: 2 h, kinase CAMK2g; read-out: % Enzyme Activity (relative to DMSO controls).

The target of test [16] is T16, panel of 370 protein kinases (Homo sapiens, UniProt P41743).
T16 construct: purchased Reaction Biology Corporation (assay service)
As to conditions: 2 h, kinase PKCiota; read-out: % Enzyme Activity (relative to DMSO controls).

The target of test [17] is T17, panel of 370 protein kinases (Homo sapiens, UniProt P22607).
T17 construct: purchased Reaction Biology Corporation (assay service)
As to conditions: 2 h, kinase FGFR3; read-out: % Enzyme Activity (relative to DMSO controls).

The target in test [18] is T18, panel of 370 protein kinases (Homo sapiens, UniProt O60674).
T18 construct: purchased Reaction Biology Corporation (assay service)
T18 sequence (O60674 whole entry): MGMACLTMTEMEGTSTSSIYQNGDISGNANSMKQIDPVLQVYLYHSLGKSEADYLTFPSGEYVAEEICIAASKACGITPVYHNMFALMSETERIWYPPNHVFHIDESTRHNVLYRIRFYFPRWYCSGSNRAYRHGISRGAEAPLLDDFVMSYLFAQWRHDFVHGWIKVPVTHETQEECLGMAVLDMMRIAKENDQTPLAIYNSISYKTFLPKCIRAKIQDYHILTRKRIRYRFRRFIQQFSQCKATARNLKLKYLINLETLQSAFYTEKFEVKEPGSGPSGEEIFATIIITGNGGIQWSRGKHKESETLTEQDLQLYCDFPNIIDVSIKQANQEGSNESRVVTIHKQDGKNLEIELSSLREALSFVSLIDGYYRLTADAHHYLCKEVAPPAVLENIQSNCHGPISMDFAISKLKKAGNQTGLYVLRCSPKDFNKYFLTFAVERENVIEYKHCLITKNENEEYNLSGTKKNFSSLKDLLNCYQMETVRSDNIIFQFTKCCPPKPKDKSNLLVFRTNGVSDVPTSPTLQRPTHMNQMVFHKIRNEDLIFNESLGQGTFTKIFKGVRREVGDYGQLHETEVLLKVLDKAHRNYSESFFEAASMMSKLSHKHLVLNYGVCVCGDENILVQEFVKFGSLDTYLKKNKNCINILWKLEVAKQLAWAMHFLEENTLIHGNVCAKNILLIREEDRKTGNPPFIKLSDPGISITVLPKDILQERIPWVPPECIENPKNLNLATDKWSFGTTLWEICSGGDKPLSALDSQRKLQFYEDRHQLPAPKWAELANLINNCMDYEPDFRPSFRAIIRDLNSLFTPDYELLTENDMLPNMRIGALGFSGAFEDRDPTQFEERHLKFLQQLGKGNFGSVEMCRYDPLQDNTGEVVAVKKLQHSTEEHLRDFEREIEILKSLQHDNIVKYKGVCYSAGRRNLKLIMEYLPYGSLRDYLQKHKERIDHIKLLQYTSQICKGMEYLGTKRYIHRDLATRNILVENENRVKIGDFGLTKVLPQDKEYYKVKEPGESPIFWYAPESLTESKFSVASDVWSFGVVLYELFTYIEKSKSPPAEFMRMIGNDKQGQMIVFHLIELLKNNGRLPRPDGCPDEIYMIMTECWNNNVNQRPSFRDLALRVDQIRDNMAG
As to conditions: kinase JAK2.

Test [19] deals with T19, panel of 370 protein kinases (Homo sapiens, UniProt P07333).
T19 construct: purchased Reaction Biology Corporation (assay service)
As to conditions: 2 h, kinase FMS; read-out: % Enzyme Activity (relative to DMSO controls).

Test [20] concerns the target T20, panel of 370 protein kinases (Homo sapiens, UniProt Q8IYT8).
T20 construct: purchased Reaction Biology Corporation (assay service)
As to conditions: 2 h, kinase ULK2; read-out: % Enzyme Activity (relative to DMSO controls).

For test [21], the target named is T21, panel of 370 protein kinases (Homo sapiens, UniProt Q12852).
T21 construct: purchased Reaction Biology Corporation (assay service)
T21 sequence (Q12852 whole entry): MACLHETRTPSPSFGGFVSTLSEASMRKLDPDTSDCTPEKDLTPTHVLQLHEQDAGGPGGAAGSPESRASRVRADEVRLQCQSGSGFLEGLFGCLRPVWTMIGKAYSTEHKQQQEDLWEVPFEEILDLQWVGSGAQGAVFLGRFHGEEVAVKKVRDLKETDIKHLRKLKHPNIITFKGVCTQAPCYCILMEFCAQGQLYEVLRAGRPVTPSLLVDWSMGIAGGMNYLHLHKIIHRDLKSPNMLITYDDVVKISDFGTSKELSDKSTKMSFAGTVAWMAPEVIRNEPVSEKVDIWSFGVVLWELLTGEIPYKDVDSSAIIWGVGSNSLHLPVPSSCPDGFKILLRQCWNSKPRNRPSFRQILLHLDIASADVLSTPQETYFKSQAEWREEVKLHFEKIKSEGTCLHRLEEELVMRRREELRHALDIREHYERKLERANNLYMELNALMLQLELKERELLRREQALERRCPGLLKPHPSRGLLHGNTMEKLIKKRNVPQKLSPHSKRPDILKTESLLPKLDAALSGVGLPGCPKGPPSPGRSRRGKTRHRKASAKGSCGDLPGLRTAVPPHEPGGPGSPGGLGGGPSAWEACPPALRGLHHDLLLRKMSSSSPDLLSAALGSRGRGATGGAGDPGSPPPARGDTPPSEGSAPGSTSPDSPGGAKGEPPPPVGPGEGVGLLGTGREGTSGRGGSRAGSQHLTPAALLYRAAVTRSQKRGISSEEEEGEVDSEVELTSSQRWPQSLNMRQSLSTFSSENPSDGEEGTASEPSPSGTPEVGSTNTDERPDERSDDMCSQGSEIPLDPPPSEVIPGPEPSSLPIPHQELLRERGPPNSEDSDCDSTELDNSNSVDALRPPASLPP
As to conditions: kinase DLK/MAP3K12.

For test [22], the target named is T22, panel of 370 protein kinases (Homo sapiens, UniProt Q9Y2U5).
T22 construct: purchased Reaction Biology Corporation (assay service)
As to conditions: 2 h, kinase MEKK2; read-out: % Enzyme Activity (relative to DMSO controls).

SMILES strings stand for the structures. Where “and” joins values, the source holds several entries; their conditions need not be identical. Equal entries are not always repeated.

T2 sequence (P49336 whole entry): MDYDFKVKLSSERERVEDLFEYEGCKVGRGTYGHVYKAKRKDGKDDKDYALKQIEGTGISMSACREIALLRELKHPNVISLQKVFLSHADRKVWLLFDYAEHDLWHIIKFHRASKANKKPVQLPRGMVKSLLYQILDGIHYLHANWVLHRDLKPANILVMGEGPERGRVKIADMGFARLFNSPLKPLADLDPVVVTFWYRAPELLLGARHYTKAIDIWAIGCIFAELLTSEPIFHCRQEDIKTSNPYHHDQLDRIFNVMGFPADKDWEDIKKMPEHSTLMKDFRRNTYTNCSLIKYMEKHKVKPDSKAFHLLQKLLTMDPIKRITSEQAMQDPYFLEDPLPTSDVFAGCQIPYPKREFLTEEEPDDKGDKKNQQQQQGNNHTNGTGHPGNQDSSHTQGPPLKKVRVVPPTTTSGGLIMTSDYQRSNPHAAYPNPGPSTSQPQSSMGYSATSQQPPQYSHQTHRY
T13 sequence (Q9NRM7 whole entry): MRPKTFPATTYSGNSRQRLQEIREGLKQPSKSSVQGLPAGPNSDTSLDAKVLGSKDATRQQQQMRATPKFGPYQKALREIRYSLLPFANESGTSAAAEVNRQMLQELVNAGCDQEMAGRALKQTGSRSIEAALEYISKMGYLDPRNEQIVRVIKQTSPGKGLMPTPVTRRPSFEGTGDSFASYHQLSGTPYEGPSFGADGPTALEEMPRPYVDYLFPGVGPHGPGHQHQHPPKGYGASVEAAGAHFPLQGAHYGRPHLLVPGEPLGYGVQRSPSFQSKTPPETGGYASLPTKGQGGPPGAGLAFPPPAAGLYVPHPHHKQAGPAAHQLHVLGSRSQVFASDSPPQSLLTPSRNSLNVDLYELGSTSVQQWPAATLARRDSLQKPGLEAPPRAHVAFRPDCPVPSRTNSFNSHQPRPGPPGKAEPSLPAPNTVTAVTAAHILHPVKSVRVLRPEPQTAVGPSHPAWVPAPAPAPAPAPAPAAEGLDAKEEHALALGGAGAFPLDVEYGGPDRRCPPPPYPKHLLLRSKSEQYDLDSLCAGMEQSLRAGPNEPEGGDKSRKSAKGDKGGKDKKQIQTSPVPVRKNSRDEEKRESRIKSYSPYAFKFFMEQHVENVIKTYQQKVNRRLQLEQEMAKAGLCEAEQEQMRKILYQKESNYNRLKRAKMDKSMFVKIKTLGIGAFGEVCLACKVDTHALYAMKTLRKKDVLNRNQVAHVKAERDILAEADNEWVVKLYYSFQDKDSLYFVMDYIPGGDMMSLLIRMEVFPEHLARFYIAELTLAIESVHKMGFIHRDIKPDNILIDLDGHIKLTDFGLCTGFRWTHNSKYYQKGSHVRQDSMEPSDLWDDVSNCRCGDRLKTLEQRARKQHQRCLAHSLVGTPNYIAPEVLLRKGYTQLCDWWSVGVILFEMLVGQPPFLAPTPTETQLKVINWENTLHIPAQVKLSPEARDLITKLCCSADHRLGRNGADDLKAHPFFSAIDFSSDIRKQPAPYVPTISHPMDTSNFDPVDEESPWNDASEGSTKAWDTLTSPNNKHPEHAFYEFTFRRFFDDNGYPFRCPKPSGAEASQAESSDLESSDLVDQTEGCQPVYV
T6 sequence (P45983 whole entry): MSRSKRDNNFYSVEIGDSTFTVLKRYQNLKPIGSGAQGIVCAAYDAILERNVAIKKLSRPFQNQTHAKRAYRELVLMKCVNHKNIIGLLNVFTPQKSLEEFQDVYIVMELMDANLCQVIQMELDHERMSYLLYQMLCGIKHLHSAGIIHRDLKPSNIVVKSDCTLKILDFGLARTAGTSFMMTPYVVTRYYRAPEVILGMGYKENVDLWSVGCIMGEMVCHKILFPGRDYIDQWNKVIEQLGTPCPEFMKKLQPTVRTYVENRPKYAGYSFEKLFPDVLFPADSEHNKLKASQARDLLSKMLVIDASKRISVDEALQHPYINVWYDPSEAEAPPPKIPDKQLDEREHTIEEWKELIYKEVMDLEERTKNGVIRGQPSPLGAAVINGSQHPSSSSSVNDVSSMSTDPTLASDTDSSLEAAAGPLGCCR
T4 sequence (Q6PHR2 whole entry): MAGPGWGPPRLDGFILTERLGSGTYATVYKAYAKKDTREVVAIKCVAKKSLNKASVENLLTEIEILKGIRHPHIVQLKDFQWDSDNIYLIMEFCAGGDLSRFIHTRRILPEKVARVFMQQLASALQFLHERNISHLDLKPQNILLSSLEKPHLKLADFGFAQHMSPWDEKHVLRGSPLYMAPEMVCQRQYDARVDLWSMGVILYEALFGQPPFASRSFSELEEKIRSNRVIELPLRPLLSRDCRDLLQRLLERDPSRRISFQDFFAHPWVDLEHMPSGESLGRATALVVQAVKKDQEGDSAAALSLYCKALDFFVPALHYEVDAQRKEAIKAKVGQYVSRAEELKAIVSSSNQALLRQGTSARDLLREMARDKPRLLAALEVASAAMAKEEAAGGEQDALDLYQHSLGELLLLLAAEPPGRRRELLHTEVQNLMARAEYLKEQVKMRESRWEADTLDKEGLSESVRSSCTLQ

For the compound `CCN1CCN(C(=O)c2ccc(Nc3ncc(F)c(-c4ccc5nc(N(C)C)sc5c4)n3)nc2)CC1` [YK-2-69], the remaining activity at 1 µM in test [1] turned out to be 84.3%; in test [3], 97.9%; in test [5], 97.8%; in [7], 99.2%; in test [8] it was 101%; in test [9], 105%. In addition, the remaining activity at 1 µM in [10] came out at 95.6%; in test [11], 91.3%; in test [12], 89.2%; in test [14], 85.3%; in test [15], 86%; in [16], 84.8%. Moreover, the remaining activity at 1 µM in test [17] stood at 94%; in test [19], 94.5%; in test [20], 97.9%; in [22], 113%. The “% Enzyme Activity (relative to DMSO controls)” value was 57.28% and 56.07% in test [2]; 97.12% and 96.24% in test [4]; 71.84% and 70.88% in [6]; 96.27% and 92.88% in [13]; 101.21% and 93.21% in test [18]; 98.52% and 93.92% in [21].

The record behind these values is article PMC9133015 (Nature Communications, 2022).
